Assay [1] has as its target T1, EGFR (Homo sapiens, UniProt P00533).
T1 construct: A431 […] cell lysate is stored at −80° C; host or cells: A431 cell lysate
Put plainly: Assay for modulation of EGFR activity (ELISA). Format: biochemical. The conditions noted are these: read-out: bio EGFR IC50. How it is done:
Using the following reagents, supplies, and method, the ability of compounds of the invention to modulate the in vitro activity of EGFR can be readily determined in an ELISA.
A431 […] cell lysate is stored at −80° C.
ATP/MnCl2 phosphorylation mix is prepared by adding 300 μL of 1.0 mM ATP and […] of 1M MnCl2 to 9.2 mL of dH2O and mixing. Ten mL of phosphorylation mix is enough for about 6 assay plates. Note that the mixture should be made fresh and kept on ice immediately before use, and that although the preferred ATP is fresh from powder stock, any remaining stock solution of ATP may be frozen at −20° C. in small aliquots to be used at a later time.
Coat Corning 96 well ELISA plates with 0.5 μg per well with SUMO1 in a volume of 100 μL PBS overnight, at 4° C. Remove unbound SUMO1 from wells by inverting plate to remove liquid. Wash 1× with distilled H2O by filling wells. Pat the plate on a paper towel to remove excess liquid.
Add 150 μL of Blocking Buffer to each well. Incubate for 30 minutes at room temperature, with shaking. Wash plate 3× with deionized water, then once with TBST. Pat plate on a paper towel to remove excess liquid and bubbles.
Dilute lysate in PBS (7 μg lysate/[…]) and add 100 μL of diluted lysate to each well. Shake at room temperature for 60 minutes. Wash 1× with distilled H2O by filling wells. Pat the plate on a paper towel to remove excess liquid.
Add 120 μL TBST to ELISA plate containing captured EGFR.
Dilute drugs/extracts 1:10 (unless specified otherwise) in TBST in 96-well polypropylene plates. (i.e., 10 μL compound+90 μL TBST). Add 13.5 μL diluted drugs/extracts to ELISA plate. […] Incubate for 30 minutes while shaking at room temperature.
Approximately 150 μL final volume in well with 3 uM ATP/5 mM MnCl2 final concentration in well. Incubate 5 minutes while shaking. Note that this is a timed event. It is critical that ATP/MnCl2 phosphorylates the receptor for only 5 minutes. It is best to add the ATP/MnCl2 with an automated 96 place pipettor workstation, then 5 minutes later stop the reaction with EDTA using the same workstation. Alternatively, addition can be performed using a 12 channel pipettor 1 row at a time, leaving 20 seconds between each row so that the reaction may be stopped with EDTA exactly 5 minutes later (this depends on the number of plates being phosphorylated in one batch). Shake between each addition.
[…] This is done using either the same work station as above, or the same timing method employed with the 12 channel pipettor. After the EDTA has been added, shake for 1 minute. Wash 4× with deionized water, twice with TBST.
Add 100 μL per well of anti-phosphotyrosine (1:3000 dilution in TBST). Incubate 30-45 minutes at room temperature, with shaking. Wash 1× with distilled H2O by filling wells. Pat the plate on a paper towel to remove excess liquid.
Incubate 30 minutes at room temperature, with shaking. Wash 1× with distilled H2O by filling wells. Pat the plate on a paper towel to remove excess liquid.
Add 100 μL of ABTS/H2O2 solution to each well. Incubate 5 to 10 minutes while shaking. Remove any bubbles. If necessary stop reaction with the addition of 100 μL of 0.2M HCl per well.
(§1) Read assay on Dynatech MR7000 ELISA reader.
A general note: An ELISA detects its analyte on a solid surface through an enzyme-linked reagent.

Assay [2] deals with T2, PDGFR (Homo sapiens, UniProt P09619).
T2 construct: expressed in transfected cells; host or cells: NIH3T3
T2 sequence (P09619 33-1106, species assumed): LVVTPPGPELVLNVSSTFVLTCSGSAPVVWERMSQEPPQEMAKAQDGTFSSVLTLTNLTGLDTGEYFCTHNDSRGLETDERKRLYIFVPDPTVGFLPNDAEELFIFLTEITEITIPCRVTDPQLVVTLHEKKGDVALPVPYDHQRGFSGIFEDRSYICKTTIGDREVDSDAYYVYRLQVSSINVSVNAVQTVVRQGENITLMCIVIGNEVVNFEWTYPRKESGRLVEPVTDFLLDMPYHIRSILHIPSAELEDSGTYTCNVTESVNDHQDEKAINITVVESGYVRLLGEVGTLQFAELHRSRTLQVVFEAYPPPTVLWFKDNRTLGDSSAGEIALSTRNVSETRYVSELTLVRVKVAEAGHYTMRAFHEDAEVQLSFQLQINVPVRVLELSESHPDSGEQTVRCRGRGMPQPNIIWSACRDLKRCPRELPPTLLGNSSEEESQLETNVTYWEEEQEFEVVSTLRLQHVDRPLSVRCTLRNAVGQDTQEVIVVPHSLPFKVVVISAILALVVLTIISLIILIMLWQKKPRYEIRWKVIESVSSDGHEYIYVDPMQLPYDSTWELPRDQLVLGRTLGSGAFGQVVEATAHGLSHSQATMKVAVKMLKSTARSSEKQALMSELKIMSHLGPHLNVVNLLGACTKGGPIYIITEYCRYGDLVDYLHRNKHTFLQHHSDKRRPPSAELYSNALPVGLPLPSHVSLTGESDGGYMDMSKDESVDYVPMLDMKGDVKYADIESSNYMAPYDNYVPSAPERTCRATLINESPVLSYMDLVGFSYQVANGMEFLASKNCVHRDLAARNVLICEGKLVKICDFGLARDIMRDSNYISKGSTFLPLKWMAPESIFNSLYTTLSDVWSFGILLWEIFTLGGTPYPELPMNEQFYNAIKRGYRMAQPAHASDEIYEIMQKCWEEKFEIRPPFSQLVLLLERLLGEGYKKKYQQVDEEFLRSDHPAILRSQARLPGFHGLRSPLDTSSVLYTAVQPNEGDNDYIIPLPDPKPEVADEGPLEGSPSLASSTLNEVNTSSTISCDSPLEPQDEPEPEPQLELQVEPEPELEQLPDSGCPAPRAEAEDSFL
As to the kind of experiment: Assay for modulation of PDGFR activity (ELISA). Format: biochemical. The conditions noted are these: read-out: bio PDGFR IC50. How it is done:
Using the following reagents, supplies, and methods, the ability of the compounds of the invention to modulate the in vitro activity of the PDGFR can be readily determined in an enzyme-linked immunosorbent assay (ELISA).
Monoclonal anti-PDGFR antibody (28D4C10) is stored at −20° C. in 50 mL tubes prior to use.
Lysates from PDGFR-β expressing NIH3T3 cells are obtained and stored at −80° C. in 1 mL aliquots. PDGFR-β expression in eukaryotic cells is well known in the art. Lysates are prepared by the following method. Place carrier dishes in ice trays, and after cooling, remove the media and replace with ice cold PBS. Remove the PBS and repeat. […] Take up lysate with a pipettor and add to a 30 mL centrifuge tube on ice. Vortex the tubes for 30-60 seconds and then centrifuge for 10 minutes at 7000 rpm in a J-20 rotor which has been precooled to below 0° C. Recover the supernatants and combine them in a 250 mL tube and place on ice. Perform protein determination to measure the total quantity of protein per mL of solution. Aliquot the lysate into 1 mL fractions and store at −80° C.
Coat Corning 96 well ELISA plates with 0.5 μg per well 28D4C10 antibody in a volume of 100 μl PBS overnight, at 4° C. and remove unbound antibody, 28D4C10, from wells by inverting plate to remove liquid. Wash 1× with distilled H2O by filling wells. Pat the plate on a paper towel to remove excess liquid.
Add 150 μL of Blocking Buffer to each well. Incubate for 30 minutes at room temperature, with shaking and wash plate 3× with deionized water, then once with TBST. Pat plate on a paper towel to remove excess liquid and bubbles
Dilute lysate in PBS (10 mg lysate/100 μL PBS). Add 100 μL of diluted lysate to each well. Shake at room temperature for 60 min. Wash plate 3× with deionized water, then once with TBST. Pat plate on a paper towel to remove excess liquid and bubbles.
Add 80 μL Kinase Buffer to ELISA plate containing captured PDGFR.
Dilute drugs/extracts 1:10 (unless specified otherwise) in TBS+10% DMSO in 96-well polypropylene plates. (i.e., 10 μL compound+90 μL (TBS+10% DMSO)). Add 10 μL diluted drugs/extracts to ELISA plate. […] Incubate for 30 minutes while shaking at room temperature.
After 30 minutes stop reaction with addition of 10 μL of 200 mM EDTA pH 8.0 for 20 mM final in well. Wash 4× with deionized water, twice with TBST.
Incubate 30-45 minutes at room temperature, with shaking. Wash plate 3× with deionized water, then once with TBST. Pat plate on a paper towel to remove excess liquid and bubbles.
Incubate 30 minutes at room temperature with shaking. Wash plate 3× with deionized water, then once with TBST. Pat plate on a paper towel to remove excess liquid and bubbles.
Add 100 μL of ABTS/H2O2 solution to each well. Incubate 10 to 30 minutes while shaking. Remove any bubbles. If necessary stop reaction with the addition of 100 μL of 0.2M HCl per well
as §1

Assay [3] concerns the target T3, HER-2 (Homo sapiens, UniProt P04626).
T3 construct: expressed in mouse 3T3 (clone C7) cells; P00533 (Epidermal growth factor receptor)
As to the kind of experiment: Assay for modulation of HER-2 activity in whole cells (ELISA). The assay is classed as cell-based. The following applies: EGFR/HER-2chimera/#T3-C7 cell lines, EGF stimulated; read-out: HER-2 kinase IC50. The protocol: Using the following reagents, supplies, and method, the ability of compounds of the invention to affect the activity of HER-2 in whole cells in an ELISA format can be assigned.
EGFR/HER-2chimera/#T3-C7 cell lines are used for this assay. Choose dishes having 80-90% confluence for the experiment. Collect cells by trypsinization and centrifuge at 1000 rpm at room temperature for 5 minutes.
Resuspend cells in starve medium and count with trypan blue. Only viability above 90% is acceptable. Seed cells in starve medium at a density of 2,500 cells per well, 90 μL per well, in a 96 well microtiter plate. Incubate seeded cells in 5% CO2 at 37° C. overnight. Start the assay two days after seeding.
Samples are diluted directly into a polypropylene plate containing starve-DMEM (non-sterile is okay). This dilution will be 1:10 or greater, depending on the samples being screened. The same amount of DMSO is put into the control wells. […] are then transferred to the cell plate at a 1:10 dilution (10 μL of sample and media into 90 μL of starve media). The final DMSO concentration will be 1% or lower.
Ten samples are put into wells 2-11 of row A of the NUNC 96 well polypropylene plate. These wells contain straight starve-DMEM. For a 1:10 dilution, one would put 10 μL of drug into 90 μL of media. The rest of the wells (including the controls) will have a DMSO/media mixture. The percentage of DMSO in this mixture is determined by the first dilution factor, in this case 1:10. The DMSO concentration is therefore 10%. An equal amount of drug and media from row A is put into row B, containing DMSO and media. The same amount is then taken out and put into row C. This is repeated for all rows. These are 1:2 dilutions. All wells are then transferred to the cell plate at a 1:10 dilution (10 μL of sample and media into 90 μL of starve-DMEM. The final DMSO concentration will be 1% or lower. […]
After a 2 hour incubation with the drug, add prepared EGF ligand to cells at 50 μL per well, for a final concentration of 50 nM. Positive control wells (8) receive the same amount of EGF. […] Incubate at 37° C. for 10 minutes.
Remove drug, EGF, and DMEM by dumping in sink. Wash cells once with PBS.
Transfer HNTG* to cells, 100 μL per well. Place on ice for 5 minutes. Meanwhile, remove blocking buffer from ELISA plate and wash as described above. With a pipette tip securely fitted to a micropipettor, scrape cells from plate and homogenize cell material by repeatedly aspirating and dispensing the HNTG* lysis buffer. Transfer lysate to a coated, blocked, washed ELISA plate. Alternatively, one may use a Costar transfer cartridge to transfer lysate to the ELISA plate. Incubate, shaking, at room temperature for one hour.
Remove lysate by dumping in sink, then wash as described earlier. Transfer freshly diluted anti-phosphotyrosine (anti-Ptyr) antibody (1:3000 in TEST) to ELISA plate, 100 μL per well. Incubate, shaking, at room temperature, for 30 minutes.
Remove anti-Ptyr antibody by dumping in sink, then wash as described earlier. Transfer freshly diluted BIOSOURCE antibody to ELISA plate, (1:8000 in TEST), 100 μL per well. Incubate, shaking, at room temperature for 30 minutes.
Remove BIOSOURCE antibody by dumping in sink, then wash as described earlier. Transfer freshly prepared ABTS/H2O2 solution to ELISA plate, […]. Incubate 5-10 minutes while shaking. Remove any bubbles and if necessary, stop reaction with the addition of 100 μL of 0.2 M HCl per well.
Read assay on Dynatech MR7000 ELISA reader. Test Filter: […]; Reference Filter: […]. A preferred template for the placement of controls in this experiment is provided below: […]

T1 sequence (P00533 25-1210): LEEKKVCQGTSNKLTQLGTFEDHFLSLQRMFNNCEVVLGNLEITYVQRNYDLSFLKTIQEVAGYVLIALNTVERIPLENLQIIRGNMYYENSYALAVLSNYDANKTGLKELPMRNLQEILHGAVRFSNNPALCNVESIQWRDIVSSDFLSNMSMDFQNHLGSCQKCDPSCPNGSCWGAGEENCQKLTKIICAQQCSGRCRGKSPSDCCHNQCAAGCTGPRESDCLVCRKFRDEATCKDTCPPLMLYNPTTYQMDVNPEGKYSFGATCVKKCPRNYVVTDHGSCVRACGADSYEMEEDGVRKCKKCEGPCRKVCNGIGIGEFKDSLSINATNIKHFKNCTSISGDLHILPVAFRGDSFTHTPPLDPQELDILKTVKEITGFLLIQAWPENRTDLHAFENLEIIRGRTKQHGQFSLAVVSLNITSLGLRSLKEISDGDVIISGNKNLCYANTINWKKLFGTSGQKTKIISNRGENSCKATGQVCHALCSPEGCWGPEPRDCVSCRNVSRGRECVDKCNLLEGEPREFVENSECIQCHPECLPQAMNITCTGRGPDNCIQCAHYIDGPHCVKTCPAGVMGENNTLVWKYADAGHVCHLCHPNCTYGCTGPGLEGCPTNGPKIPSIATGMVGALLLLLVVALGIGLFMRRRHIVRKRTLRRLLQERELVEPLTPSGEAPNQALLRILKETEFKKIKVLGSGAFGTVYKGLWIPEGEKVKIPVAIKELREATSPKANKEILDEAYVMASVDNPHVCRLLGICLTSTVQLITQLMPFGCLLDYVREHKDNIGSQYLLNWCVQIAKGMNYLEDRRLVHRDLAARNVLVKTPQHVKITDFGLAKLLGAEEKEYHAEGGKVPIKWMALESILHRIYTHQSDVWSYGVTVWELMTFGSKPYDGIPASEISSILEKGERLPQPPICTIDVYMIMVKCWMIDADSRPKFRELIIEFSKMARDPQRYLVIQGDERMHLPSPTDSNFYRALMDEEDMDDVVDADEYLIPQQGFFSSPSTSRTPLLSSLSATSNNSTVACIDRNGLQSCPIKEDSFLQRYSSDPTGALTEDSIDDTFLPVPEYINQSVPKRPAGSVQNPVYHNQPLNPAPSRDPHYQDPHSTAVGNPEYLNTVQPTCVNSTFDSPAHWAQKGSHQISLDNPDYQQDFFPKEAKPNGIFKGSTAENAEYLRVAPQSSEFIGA
T3 sequence (P04626 720-987 limits assumed): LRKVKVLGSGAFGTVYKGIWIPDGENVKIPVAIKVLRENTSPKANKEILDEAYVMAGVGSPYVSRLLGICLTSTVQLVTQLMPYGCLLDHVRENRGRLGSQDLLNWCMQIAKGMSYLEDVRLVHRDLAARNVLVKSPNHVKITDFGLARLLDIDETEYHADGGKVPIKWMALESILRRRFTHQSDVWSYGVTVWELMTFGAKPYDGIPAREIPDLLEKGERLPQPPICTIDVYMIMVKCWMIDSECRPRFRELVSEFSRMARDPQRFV

For orientation: IC50 means the point on the concentration scale where inhibition reaches its midpoint. In the case of `Cc1[nH]c(C=C2C(=O)Nc3ncnc(Nc4ccc(F)c(Cl)c4)c32)c(C)c1CCC(=O)O` [Formula 19, 3-{5-[4-(3-CHLORO-4-FLUORO-PHENYLAMINO)-6-OXO-6,7-DIHYDRO-PYRROLO[2,3-D]PYRIMIDIN-5-YLIDENEMETHYL]-2,4-DIMETHYL-1H-PYRROL-3-YL}-PROPIONIC ACID], the IC50 in assay [1] stood at 170 nM; in assay [2], 12800 nM.
In the same order, the values of `Cc1[nH]c(/C=C2\C(=O)Nc3ncnc(Nc4ccc(F)c(Cl)c4)c32)c(C)c1CCC(=O)N1CCCC1` [Formula 24] are 890 nM and greater than 20000 nM.
For `Cc1cc(CCC(=O)N2CCN(C)CC2)[nH]c1/C=C1\C(=O)Nc2ncnc(Nc3ccc(F)c(Cl)c3)c21` [Formula 25], the values for the IC50 in assay [3] and in assay [1] were 11900 nM and 58 nM, respectively.
In the same order, the values of `CCN(CC)CCNC(=O)c1c(C)[nH]c(/C=C2\C(=O)Nc3ncnc(Nc4ccc(F)c(Cl)c4)c32)c1C` [Formula 28] are 160 nM and 210 nM.
Consider `Cc1[nH]c(/C=C2\C(=O)Nc3ncnc(Nc4ccc(F)c(Cl)c4)c32)c(C)c1CCC(=O)N1CCOCC1` [Formula 30], for which the IC50 in assay [1] was 770 nM; in assay [2] it was greater than 20000 nM.
`Cc1cc(C(=O)NCCN2CCOCC2)[nH]c1/C=C1\C(=O)N(C)c2ncnc(Nc3ccc(F)c(Cl)c3)c21` [Formula 32]: the IC50 in assay [3] was 18700 nM; in assay [1], 7140 nM.
For the molecule `O=C1Nc2ncnc(Nc3ccc(F)c(Cl)c3)c2/C1=C/c1ccc(C(=O)N2CCOCC2)[nH]1` [Formula 33], the IC50 in assay [1] is 900 nM; in assay [2], greater than 20000 nM.
`Cc1cc(/C=C2\C(=O)Nc3ncnc(Nc4ccc(F)c(Cl)c4)c32)[nH]c1C(=O)N1CCN(C)CC1` [Formula 35]: the IC50 was 590 nM in assay [3] and 400 nM in assay [1].
In the case of `Cc1[nH]c(/C=C2\C(=O)Nc3ncnc(Nc4ccc(F)c(Cl)c4)c32)c(C)c1C(=O)N1CCN(C)CC1` [Formula 41], the IC50 is 540 nM in assay [1] and greater than 20000 nM in assay [2].
With `Cc1[nH]c(/C=C2\C(=O)Nc3ncnc(Nc4ccc(F)c(Cl)c4)c32)c(C)c1C(=O)N1CCOCC1` [Formula 43], the figures for the IC50 in assay [1] and in assay [2] were 860 nM and greater than 20000 nM, respectively.
In the same order, the values of `CN1CCN(C(=O)c2ccc(/C=C3\C(=O)Nc4ncnc(Nc5ccc(F)c(Cl)c5)c43)[nH]2)CC1` [Formula 45] are 50 nM and greater than 20000 nM.
Take `Cc1cc(CCC(=O)O)[nH]c1/C=C1\C(=O)Nc2ncnc(Nc3ccc(F)c(Cl)c3)c21` [Formula 49]: the IC50 is 1800 nM in assay [3] and 5 nM in assay [1].
Turning to `Cc1[nH]c(/C=C2\C(=O)Nc3ncnc(Nc4ccc(F)c(Cl)c4)c32)c(C)c1CC(=O)O` [Formula 51], the IC50 in assay [3] was determined as 860 nM; in assay [1], 38 nM.

Values taken from US6908930B2, “4-substituted 7-AZA-indolin-2-ones and their use as protein kinase inhibitors” (Sugen, Inc., priority 1999, dated 2005).
